{
  "source": "patent US7211597B2",
  "about": "“Substituted pyrazolyl compounds for the treatment of inflammation” (priority 2001, dated 2007)",
  "data": [
    {"target": "T1, IKK heterodimer (rhIKK1/IKK2) (Homo sapiens, UniProt O14920+O15111)", "T1 construct": "made in house; host or cells: baculovirus-infected insect cells (SF9)", "T1 sequence (O14920 1-756)": "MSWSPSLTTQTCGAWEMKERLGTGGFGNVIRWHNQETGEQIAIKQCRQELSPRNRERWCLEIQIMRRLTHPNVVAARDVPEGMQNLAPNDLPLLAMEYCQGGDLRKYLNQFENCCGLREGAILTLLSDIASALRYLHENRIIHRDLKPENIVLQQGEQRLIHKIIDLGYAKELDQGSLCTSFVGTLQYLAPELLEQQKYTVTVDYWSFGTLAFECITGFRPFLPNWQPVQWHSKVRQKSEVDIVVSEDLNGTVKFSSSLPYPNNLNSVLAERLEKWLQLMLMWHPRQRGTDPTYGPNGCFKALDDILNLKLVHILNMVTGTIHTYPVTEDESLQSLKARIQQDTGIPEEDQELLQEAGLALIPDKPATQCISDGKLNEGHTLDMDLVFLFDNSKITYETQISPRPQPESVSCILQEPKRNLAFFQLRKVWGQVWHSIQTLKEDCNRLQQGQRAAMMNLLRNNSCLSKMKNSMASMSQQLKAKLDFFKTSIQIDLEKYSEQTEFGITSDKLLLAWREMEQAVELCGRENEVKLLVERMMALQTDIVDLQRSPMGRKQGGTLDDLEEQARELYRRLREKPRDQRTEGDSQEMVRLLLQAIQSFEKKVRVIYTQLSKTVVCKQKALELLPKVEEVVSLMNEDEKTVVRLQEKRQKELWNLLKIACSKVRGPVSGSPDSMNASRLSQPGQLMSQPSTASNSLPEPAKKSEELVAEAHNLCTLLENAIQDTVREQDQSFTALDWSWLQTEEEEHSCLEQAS", "T1 sequence (O15111 1-745)": "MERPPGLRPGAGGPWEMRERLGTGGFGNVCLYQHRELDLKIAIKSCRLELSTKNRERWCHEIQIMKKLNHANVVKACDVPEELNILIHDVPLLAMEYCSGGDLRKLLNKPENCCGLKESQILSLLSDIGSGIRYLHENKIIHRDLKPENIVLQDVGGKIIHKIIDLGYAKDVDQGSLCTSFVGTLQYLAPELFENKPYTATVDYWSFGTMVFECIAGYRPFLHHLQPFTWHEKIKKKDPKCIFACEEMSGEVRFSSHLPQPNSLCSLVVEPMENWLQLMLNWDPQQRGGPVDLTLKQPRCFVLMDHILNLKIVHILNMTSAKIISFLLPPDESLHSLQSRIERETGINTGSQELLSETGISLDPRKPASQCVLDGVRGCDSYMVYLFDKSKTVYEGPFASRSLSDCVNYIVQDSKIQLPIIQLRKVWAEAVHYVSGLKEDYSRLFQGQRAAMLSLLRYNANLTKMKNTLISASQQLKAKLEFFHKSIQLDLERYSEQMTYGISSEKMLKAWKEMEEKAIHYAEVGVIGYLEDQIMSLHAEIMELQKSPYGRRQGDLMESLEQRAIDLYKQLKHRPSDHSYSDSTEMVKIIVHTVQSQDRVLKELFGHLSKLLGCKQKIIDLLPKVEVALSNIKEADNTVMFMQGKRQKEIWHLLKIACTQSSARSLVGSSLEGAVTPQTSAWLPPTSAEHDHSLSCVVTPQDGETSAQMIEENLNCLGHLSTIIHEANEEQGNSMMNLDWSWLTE", "assay": "IKK heterodimer resin enzyme assay", "assay_type": "biochemical", "conditions": "Table 1; read-out: HetD (IKK heterodimer assay values expressed as IC50)", "description": "cDNAs of human IKK1 and IKK2 were amplified by reverse transcriptase-polymerase chain reaction from human placental RNA (Clonetech). hIKK1 was subcloned into pFastBac HTa (Life Technologies) and expressed as N-terminal His6-tagged fusion protein. The hIKK2 cDNA was amplified using a reverse oligonucleotide primer which incorporated the peptide sequence for a FLAG-epitope tag at the C-terminus of the IKK2 coding region (DYKDDDDKD). The hIKK2:FLAG cDNA was subcloned into the baculovirus vector pFastBac. The rhIKK2 ([…]) mutant was constructed in the same vector used for wild type rhIKK2 using a QuikChange™ mutagenesis kit (Stratagene). Viral stocks of each construct were used to infect insect cells grown in 40L suspension culture. […] Cell lysates were stored at −80° C. until purification of the recombinant proteins was undertaken as described below.\nIsolation of rhIKK1/IKK2 Heterodimer\nThe heterodimer enzyme was produced by coinfection in a baculovirus system (FLAG IKK2/IKK1 His; MOI=0.1 and I=72 hrs). Infected cells were centrifuged and the cell pellet (10.0 g) was suspended in 50 ml of buffer A. The protein suspension was microfluidized and centrifuged at 100,000×g for 45 min. Imidazole was added to the supernatant to a final concentration of 10 mM. The protein was allowed to bind 25 ml of Ni-NTA resin by mixing for 2 hrs. The protein-resin slurry was poured into a 25 ml column and washed with 250 ml of buffer A containing 10 mM imidazole followed by 125 ml of buffer A containing 50 mM imidazole. Buffer A, containing 300 mM imidazole, was then used to elute the protein. A 75 ml pool was collected and NP-40 was added to a final concentration of 0.1%. The protein solution was then dialyzed against buffer B. The dialyzed heterodimer enzyme was then allowed to bind to 25 ml of anti-FLAG M2 agarose affinity gel overnight with constant mixing. The protein-resin slurry was then centrifuged for 5 min at 2,000 rpm. The supernatant was collected and the resin re-suspended in 100 ml of buffer C containing 0.1% NP-40. The resin was washed with 375 ml of buffer C containing 0.1% NP-40. The protein-resin was poured into a 25 ml column and the enzyme eluted using buffer B containing FLAG peptide. Enzyme fractions (100 ml) were collected and concentrated to 20 ml using an Amicon membrane with molecular weight cut-off of 30 kDa. Bovine serum albumin was added to the concentrated enzyme to final concentration of 0.1%. The enzyme was then aliquoted and stored at −80° C.\nIKK Heterodimer Resin Enzyme Assay\nIKK heterodimer kinase activity was measured using a biotinylated IκBα peptide (Gly-Leu-Lys-Lys-Glu-Arg-Leu-Leu-Asp-Asp-Arg-His-Asp-Ser32-Gly-Leu-Asp-Ser36-Met-Lys-Asp-Glu-Glu) (American Peptide Co.). 20 ul of the standard reaction mixture contained 5 μM biotinylated IκBα peptide, 0.1 μCi/reaction [γ-^33P] ATP (Amersham) (about 1×10^5 cpm), 1 μM ATP (Sigma), 1 mM DTT (Sigma), 2 mM MgCl2 (Sigma), 2 mM MnCl2 (Sigma), 10 mM NaF (Sigma), 25 mM Hepes (Sigma) buffer, pH 7.6 and 20 μl enzyme solution and 10 μl inhibitor in a final volume of 50 μl. After incubation at 25° C. for 30 min, 150 μl resin (Dowex anion-exchange resin AG1X8 200-400 mesh) in 900 mM formate, pH 3.0 was added to each well to stop the reaction. Resin was allowed to settle for one hour and 50 ul of supernatant was removed to a Micolite-2 flat bottom plate (Dynex). 150 μl of scintillation fluid (Microscint 40) (Packard) was added to each well. Incorporation of [γ-^33P] ATP was measured using a Top-Count NXT (Packard).", "units": {"IC50": "µM"}, "values": [
      {"smiles": "Cc1ccc(S(=O)(=O)N2Cc3c(C(N)=O)nn(-c4ccc(S(N)(=O)=O)cc4)c3-c3ccccc32)cc1", "note": "[Example 15, 1-[4-(aminosulfonyl)phenyl]-5-[(4-methylphenyl)sulfonyl]-4,5-dihydro-1H-pyrazolo[4,3-c]quinoline-3-carboxamide]", "IC50": "> 100"},
      {"smiles": "CCOC(=O)c1nn(-c2ccc(OOSN)cc2)c2c1SCc1ccccc1-2", "note": "[Example 9, ethyl 1-{4-[(aminothio)peroxy]phenyl}-1,5-dihydroisothiochromeno[4,3-c]pyrazole-3-carboxylate]", "IC50": "> 100"},
      {"smiles": "CCOC(=O)c1nn(-c2ccc(S(N)(=O)=O)cc2)c2c1CNc1ccccc1-2", "note": "[Example 12, ethyl 1-[4-(aminosulfonyl)phenyl]-4,5-dihydro-1H-pyrazolo[4,3-c]quinoline-3-carboxylate]", "IC50": "> 100"},
      {"smiles": "CCOC(=O)c1nn(-c2ccc(S(N)(=O)=O)cc2)c2c1CN(S(=O)(=O)c1ccc(C)cc1)c1ccccc1-2", "note": "[Example 14, ethyl 1-[4-(aminosulfonyl)phenyl]-5-[(4-methylphenyl)sulfonyl]-4,5-dihydro-1H-pyrazolo[4,3-c]quinoline-3-carboxylate]", "IC50": "> 100"},
      {"smiles": "NSOOc1ccc(-n2nc(C(N)=O)c3c2-c2ccc4c(c2CS3)OCO4)cc1", "note": "[Example 11, 8-{4-[(aminothio)peroxy]phenyl}-4,8-dihydro[1,3]dioxolo[7,8]isothiochromeno[4,3-c]pyrazole-6-carboxamide]", "IC50": "> 100"},
      {"smiles": "NSOOc1ccc(-n2nc(C(N)=O)c3c2-c2ccccc2CS3)cc1", "note": "[Example 10, 1-{4-[(aminothio)peroxy]phenyl}-1,5-dihydroisothiochromeno[4,3-c]pyrazole-3-carboxamide]", "IC50": "> 100"}
    ]}
  ]
}
